Activity data for one substance are collected here from ChEMBL document CHEMBL2074423, “Inhibition of P-glycoprotein activity and reversal of cancer multidrug resistance by Momordica charantia extract” (Cancer Chemother Pharmacol, 2004).

The data set deals with ATP-dependent translocase ABCB1 (Homo sapiens, UniProt P08183). As to the kind of experiment: TP_TRANSPORTER: drug resistance (vinblastine) in KB-V1 cells. It counts as functional, cell-based.
Chain of ATP-dependent translocase ABCB1 (P08183 whole entry): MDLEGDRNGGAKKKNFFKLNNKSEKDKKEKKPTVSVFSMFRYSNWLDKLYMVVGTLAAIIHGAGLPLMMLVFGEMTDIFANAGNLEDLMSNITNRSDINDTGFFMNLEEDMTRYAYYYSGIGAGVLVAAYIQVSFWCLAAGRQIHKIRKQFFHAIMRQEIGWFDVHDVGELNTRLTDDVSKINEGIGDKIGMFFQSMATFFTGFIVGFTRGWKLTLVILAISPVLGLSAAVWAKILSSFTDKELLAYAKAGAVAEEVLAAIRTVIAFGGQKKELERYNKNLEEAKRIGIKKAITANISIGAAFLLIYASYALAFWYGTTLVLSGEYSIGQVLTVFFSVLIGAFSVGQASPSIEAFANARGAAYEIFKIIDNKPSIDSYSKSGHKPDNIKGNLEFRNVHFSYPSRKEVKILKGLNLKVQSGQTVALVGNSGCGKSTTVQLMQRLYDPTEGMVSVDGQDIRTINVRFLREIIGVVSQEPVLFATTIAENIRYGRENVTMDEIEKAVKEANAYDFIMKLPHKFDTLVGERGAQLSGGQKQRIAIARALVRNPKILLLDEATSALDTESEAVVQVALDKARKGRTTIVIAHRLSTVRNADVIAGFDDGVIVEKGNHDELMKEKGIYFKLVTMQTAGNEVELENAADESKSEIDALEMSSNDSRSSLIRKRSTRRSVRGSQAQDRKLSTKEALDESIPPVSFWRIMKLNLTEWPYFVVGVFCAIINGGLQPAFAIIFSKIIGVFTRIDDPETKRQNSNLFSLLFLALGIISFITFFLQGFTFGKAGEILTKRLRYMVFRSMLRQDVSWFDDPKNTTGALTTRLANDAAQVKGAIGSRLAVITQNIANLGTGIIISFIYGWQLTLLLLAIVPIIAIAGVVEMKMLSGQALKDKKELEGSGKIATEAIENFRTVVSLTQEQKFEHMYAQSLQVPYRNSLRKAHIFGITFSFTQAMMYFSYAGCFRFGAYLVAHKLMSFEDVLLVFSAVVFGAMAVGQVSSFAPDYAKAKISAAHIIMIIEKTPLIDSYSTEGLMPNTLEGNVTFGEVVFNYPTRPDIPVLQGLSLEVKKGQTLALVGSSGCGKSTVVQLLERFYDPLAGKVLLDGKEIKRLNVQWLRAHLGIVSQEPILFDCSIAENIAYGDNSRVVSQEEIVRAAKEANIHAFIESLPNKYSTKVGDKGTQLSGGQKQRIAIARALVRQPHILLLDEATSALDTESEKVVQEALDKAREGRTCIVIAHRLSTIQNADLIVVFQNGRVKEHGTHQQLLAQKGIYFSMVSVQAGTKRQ

Regarding BITTER MELON LEAF EXTRACT, the Activity result is “inhibitor [+]”.
